Laboratory results as given in patent US5292884A, “Cyclic hydroxamic acids” (Biomide Investment Limited Partnership, priority 1992, dated 1994).

molecular target: T1, 12-lipoxygenase (Sus scrofa, UniProt P16469); test: 12-lipoxygenase inhibition in porcine leukocyte cytosol ([1-14C] arachidonic acid conversion to 12-HETE, TLC); type: biochemical; details: porcine leukocyte cytosol 0.075 mg/mL, pH 8.0, 5 min preincubation, 5 μM arachidonic acid, 15 min at 37° C.
T1 construct: porcine Leukocyte cytosol in buffer; from tissue; host or cells: porcine leukocyte cytosol
T1 sequence (P16469 1-663): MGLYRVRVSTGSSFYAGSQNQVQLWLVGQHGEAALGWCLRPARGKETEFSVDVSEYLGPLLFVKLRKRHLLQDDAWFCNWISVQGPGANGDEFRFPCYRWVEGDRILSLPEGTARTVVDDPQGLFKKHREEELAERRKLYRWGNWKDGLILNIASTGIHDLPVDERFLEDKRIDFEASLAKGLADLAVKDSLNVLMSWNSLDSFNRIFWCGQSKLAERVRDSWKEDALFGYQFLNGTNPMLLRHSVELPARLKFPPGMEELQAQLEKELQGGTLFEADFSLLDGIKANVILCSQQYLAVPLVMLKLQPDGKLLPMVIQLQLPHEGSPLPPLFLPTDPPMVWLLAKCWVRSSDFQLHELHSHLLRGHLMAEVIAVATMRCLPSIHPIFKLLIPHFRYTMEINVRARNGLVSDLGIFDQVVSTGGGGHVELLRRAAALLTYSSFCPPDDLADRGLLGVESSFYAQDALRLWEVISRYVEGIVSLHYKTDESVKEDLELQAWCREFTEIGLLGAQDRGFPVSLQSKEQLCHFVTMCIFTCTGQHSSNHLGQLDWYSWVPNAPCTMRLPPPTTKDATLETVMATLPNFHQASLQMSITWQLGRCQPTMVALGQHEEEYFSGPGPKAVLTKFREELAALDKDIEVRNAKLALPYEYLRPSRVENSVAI
Description: The standard assay procedure is as follows:
Compounds of the present invention were added in 3 μL of DMSO at an appropriate concentration to porcine Leukocyte cytosol in buffer (final protein concentration of 0.075 mg/mL in 0.1M HEPES, 2 mM caCl2, 1 mM MgCl2, pH=8.0) and preincubated for 5 min at 37° C. [1-^14 C] arachidonic acid was added (final concentration of 5 μM) and the reactions were incubated for 15 min at 37° C. and terminated by the addition of HCl. Total reaction volume was 100 μL. Assays also included reduced glutathione in the assay at 25 μM or following the assay at 1 mM and/or cold carrier 12-HETE and arachidonic acid added at the end of the incubation at concentrations of 5 and 100 μM, respectively. Sample was extracted with water-saturated ethyl acetate and the extracts were spotted onto TLC plates. The plates were developed with dichloromethane/ethyl acetate/acetic acid in a ratio of 70:30:1. Under these conditions, the Rf's of 12-HETE and arachidonic acid are 0.30 and 0.45 , respectively. The percentage conversion to 12-HETE was calculated from the percentage of the total ^14 C on the TLC plate that coelutes with a standard of 12-HETE.

SMILES	IC50
CCCCCCCCCCCC[C@@H]1[C@H](c2ccccc2)CCC(=O)N1O (relative stereo) [1(aa), cis-6-Dodecyl-1-hydroxy-5-phenyl-piperidin-2-one]	800 nM
CCCCCCCCCCCCCCCCCC[C@H]1C[C@H](c2ccccc2)CC(=O)N1O (relative stereo) [1(i), trans-1-hydroxy-6-octadecyl-4-phenylpiperidin-2-one]	10000 nM
CCCCCCCCCC[C@H]1C[C@H](Cc2ccccc2)CC(=O)N1O (relative stereo) [1(kk), trans-4-Benzyl-6-decyl-1-hydroxy-piperidin-2-one]	400 nM
CCCCCCCCCCCCC1CCC(c2ccccc2)N(O)C1=O (single isomer, unassigned) [1(ii), 3-Dodecyl-1-hydroxy-6-phenyl-piperidin-2-one]	2000 nM
O=C1C[C@H](c2ccccc2)C[C@H](CCCCCCCc2ccccc2)N1O (relative stereo) [1(l), cis-1-hydroxy-4-phenyl-6-(7-pheylheptyl)-iperidin-2-one]	500 nM
CCCCCCCCCC[C@H]1C[C@H](c2ccccc2)CC(=O)N1O (relative stereo) [1(c), trans-1-hydroxy-6-decyl-4-phenyl-piperidin-2-one]	700 nM
CCCCCCCCCCCC[C@H]1C[C@H](c2ccccc2)CC(=O)N1O (relative stereo) [1(e), trans-1-hydroxy-6-dodecyl-4-phenylpiperidin-2-one]	500 nM
CCCCCCCCCCCCCC[C@@H]1C[C@H](c2ccccc2)CC(=O)N1O (relative stereo) [1(f), cis-1-hydroxy-4-phenyl-6-tetradecyl-piperidin-2-one]	300 nM
O=C1C[C@@H](CCCc2ccccc2)C[C@@H](c2ccccc2)N1O (relative stereo) [1(ddd), cis-1-Hydroxy-6-phenyl-4-(3-phenylpropyl)-piperidin-2-one]	4200 nM
CCCCCCCC[C@H]1C[C@H](c2ccccc2)CC(=O)N1O (relative stereo) [1(a), trans-1-hydroxy-6-octyl-4-phenylpiperidin-2-one]	150 nM
CCCCCCCCCCCCCC[C@H]1C[C@H](c2ccccc2)CC(=O)N1O (relative stereo) [1(g), trans-1-hydroxy-4-phenyl-6-tetradecyl-piperidine-2-one]	400 nM
O=C1C[C@@H](CCCc2ccccc2)C[C@H](c2ccccc2)N1O (relative stereo) [1(eee), trans-1-Hydroxy-6-phenyl-4-(3-phenylpropyl)-piperidin-2-one]	3000 nM
CCCCCCCCCC[C@@H]1C[C@H](c2ccccc2)CC(=O)N1O (relative stereo) [1(b), cis-1-hydroxy-6-decyl-4-phenyl-piperidin-2-one]	600 nM
CCCCCCCCCCCCCC[C@H]1[C@H](c2ccccc2)CCC(=O)N1O (relative stereo) [1(bb), trans-1-Hydroxy-5-phenyl-6-tetradecyl-piperidin-2-one]	2000 nM
CCCCCCCCCCCC[C@@H]1C[C@H](Cc2ccccc2)CC(=O)N1O (relative stereo) [1(ll), cis-4-Benzyl-6-dodecyl-1-hydroxy-piperidin-2-one]	800 nM
CCCCCCCCCCCCCC[C@@H]1[C@H](c2ccccc2)CCC(=O)N1O (relative stereo) [1(cc), cis-1-Hydroxy-5-phenyl-6-tetradecyl-piperidin-2-one]	740 nM
O=C1C(CCCc2ccccc2)C(c2ccccc2)CCN1O (centres unmarked) [1(hh), 1-Hydroxy-4-phenyl-3-(3-phenylpropyl)-piperidin-2-one]	1050 nM
CCCCCCCCCC[C@@H]1C[C@H](Cc2ccccc2)CC(=O)N1O (relative stereo) [1(jj), cis-4-Benzyl-6-decyl-1-hydroxy-piperidin-2-one]	250 nM

Next, values leading:

IC50	SMILES
700 nM	CCCCCCCCCCCCCC[C@H]1C[C@H](Cc2ccccc2)CC(=O)N1O (relative stereo) [1(oo), trans-4-Benzyl-1-hydroxy-6-tetradecyl-piperidin-2-one]
90 nM	CCCCCCCC[C@@H]1C[C@H](c2ccc3ccccc3c2)CC(=O)N1O (relative stereo) [1(p), cis-1-hydroxy-4-(2-naphthyl)-6-octylpiperidin-2-one]
1600 nM	O=C1CC(CCc2ccccc2)C(Cc2ccccc2)CN1O (centres unmarked) [1(rr), 5-Benzyl-1-hydroxy-4-(2-phenylethyl)-piperidin-2-one]
700 nM	CCCCCCCC[C@@H]1C[C@H](c2cccc3ccccc23)CC(=O)N1O (relative stereo) [1(n), cis-1-hydroxy-4-(1-naphthyl)-6-octylpiperidin-2-one]
1700 nM	O=C1CC(CCCc2ccccc2)C(c2ccccc2)CN1O (single isomer, unassigned) [1(uu), 1-Hydroxy-5-phenyl-4-(3-phenylpropyl)-piperidin-2-one]
400 nM	CCCCCCCCC[C@@H]1CC(=O)N(O)C[C@@H]1c1ccccc1 (relative stereo) [1(ss), cis-1-Hydroxy-4-nonyl-5-phenyl-piperidin-2-one]
1000 nM	O=C1CC[C@@H](c2ccccc2)[C@H](CCCc2ccccc2)N1O (relative stereo) [1(xx), trans-1-Hydroxy-5-phenyl-6-(3-phenylpropyl)-piperidin-2-one]
520 nM	O=C1C(c2ccccc2)CC(CCCc2ccccc2)CN1O (centres unmarked) [1(yy), 1-Hydroxy-3-phenyl-5-(3-phenylpropyl)-piperidin-2-one]
1500 nM	O=C1[C@@H](CCCc2ccccc2)[C@H](c2ccccc2)CCN1O (relative stereo) [1(u), trans-1-hydroxy-4-phenyl-3-(3-phenylpropyl)-piperidin-2-one]
130 nM	CCCCCCCC[C@H]1C[C@H](c2cccc3ccccc23)CC(=O)N1O (relative stereo) [1(o), trans-1-hydroxy-4-(1-naphthyl)-6-octylpiperidin-2-one]
1000 nM	O=C1C(c2ccccc2)C(CCCc2ccccc2)CCN1O (centres unmarked) [1(vv), 1-Hydroxy-3-phenyl-4-(3-phenylpropyl)-piperidin-2-one]
1000 nM	O=C1CC(CCc2ccccc2)C(c2ccccc2)CN1O (centres unmarked) [1(qq), 1-Hydroxy-5-phenyl-4-(2-phenylethyl)-piperidin-2-one]
1600 nM	O=C1CC(c2ccccc2)C(CCCc2ccccc2)CN1O (centres unmarked) [1(zz), 1-Hydroxy-4-phenyl-5-(3-phenylpropyl)-piperidin-2-one]
800 nM	CCCCCCCCCCCC[C@H]1[C@H](c2ccccc2)CCC(=O)N1O (relative stereo) [1(z), trans-6-Dodecyl-1-hydroxy-5-phenyl-piperidin-2-one]
400 nM	CCCCCCCCCCCCCC[C@@H]1C[C@H](Cc2ccccc2)CC(=O)N1O (relative stereo) [1(nn), cis-4-Benzyl-1-hydroxy-6-tetradecyl-piperidin-2-one]
300 nM	CCCCCCCCCC[C@@H]1[C@@H](c2ccccc2)CCC(=O)N1O (relative stereo) [1(y), trans-6-Decyl-hydroxy-5-phenyl-piperidin-2-one]
200 nM	CCCCCCCCCC[C@@H]1[C@H](c2ccccc2)CCC(=O)N1O (relative stereo) [1(x), cis-6-Decyl-1-hydroxy-5-phenyl-piperidin-2-one]
900 nM	O=C1CC[C@@H](c2ccccc2)[C@@H](CCCc2ccccc2)N1O (relative stereo) [1(ww), cis-1-Hydroxy-5-phenyl-6-(3-phenylpropyl)-piperidin-2-one]
200 nM	O=C1C[C@@H](c2ccccc2)C[C@H](CCCCCCCc2ccccc2)N1O (relative stereo) [1(m), trans-1-hydroxy-4-phenyl-6-(7-phenylheptyl)-piperidin-2-one]
420 nM	CCCCCCCC[C@@H]1C[C@H](c2ccccc2)CC(=O)N1O (relative stereo) [Compound 1, cis-1-hydroxy-6-octyl-4-phenylpiperidin-2-one]
900 nM	O=C1[C@@H](CCCc2ccccc2)[C@@H](c2ccccc2)CCN1O (relative stereo) [1(t), cis-1-hydroxy-4-phenyl-3-(3-phenylpropyl)-piperidin-2-one]
800 nM	CCCCCCCCCCCC[C@@H]1C(=O)N(O)CC[C@@H]1c1ccccc1 (relative stereo) [1(r), cis-1-hydroxy-4-phenyl-3-dodecylpiperidin-2-one]
1000 nM	CCCCCCCCCC[C@@H]1CC[C@H](c2ccccc2)C(=O)N1O (relative stereo) [1(v), cis-6-Decyl-1-hydroxy-3-phenyl-piperidin-2-one]
